From patent publication US4507287A, “Preparation and method for the treatment of acne” (priority 1983, dated 1985)
Read-outs that look alike come from different tables or passages of the source.

How the values were obtained:
[1] = tested on: normal skin; settings: in vivo
Procedure: This rash, however, usually disappears shortly thereafter with no ill effects. Annals of the New York Academy of Sciences, Vol. […], (1967). S. W. Jacob, E. E. Rosenbaum, and D. C. Wood, eds., Vol. 1, Dimethyl Sulfoxide, 99 (1971), and Vol. 243, Annals of the New York Academy of Sciences, (1975). In the present invention DMSO is diluted to 70% with demineralized water before ara-A is added.

[2] = animals and humans; cited from earlier work
[3] = tested on: normal skin; settings: applied to skin; cited from earlier work
[4] = tested on: acne; assay: topical treatment of acne with antibiotics mixed with DMSO; format: in vivo; settings: antibiotic mixed with DMSO
From the text: These antibiotics including, amikacin, cefamandole, cefoxitin, erythromycin, tetracycline, tobramycin, vancomycin, lincomycin, and carbenicillin.

[5] = recovery of unchanged ara-A from the DMSO and water solution; format: physicochemical; settings: under the conditions of preparation
Procedure: There are no special procedures involved in preparing of the preparation for the treatment of acne of the present invention. The demineralized water and DMSO can be mixed first, and the ara-A (and benzocaine if used) is then dissolved in the DMSO and water solution. The ara-A can be added to the pure DMSO, and water can be added last. When water and DMSO are mixed, the solution becomes warm because there is a positive heat of solution. […] Ara-A can be recovered from the DMSO and water solution virtually 100% as unchanged ara-A.

[6] = solubility of ara-A in DMSO/water versus water; format: physicochemical; settings: DMSO in the solvent carrier medium
[7] = tested on: DNA polymerase; settings: suppresses viral replication; cited from earlier work
[8] = tested on: DNA viruses; settings: in vitro and in vivo (animal models or man), cited from earlier work
[9] = intravenous form; cited from earlier work
[10] = cited from earlier work
[11] = tested on: rats; assay: acute oral toxicity of ara-A in rats; format: in vivo; settings: extrapolated from LD50 in rats and mice
Procedure: Regarding toxicity or other side effects on the patient of the proposed preparation, extensive pharmacologic and toxicity studies on ara-A have been carried out in animals and in man. […] This dose level indicates a low order of toxicity to a single parenteral dose. The acute oral LD50 in both rats and mice is greater than […]. This amount would be equivalent to more than […] (one and two thirds pound) in an average 150 pound person. […] In the form used in the present invention and with treatment by topical application, it is highly unlikely that any toxic side effects of ara-A would be observed.

[12] = in vivo
From the text: Also one to two percent high viscosity carboxymethylcellulose, Carbopol (manufactured by Firestone Company, Akron, Ohio), or other suitable gelling agent might be added to the mixture to provide a gel which may be preferred for topical application.

[13] = tested on: acne lesions; assay: topical treatment of acne with ara-A and DMSO; format: in vivo; settings: benzocaine added to ara-A/DMSO medication
From the text: Treatment of acne with the disclosed preparation should begin as soon as the first sign of the lesion (pimple) is apparent. […] The medication should be applied every two to four hours for the first two days during waking hours.

[14] = tested on: acne; settings: oral, long-term; Plewig et al.; cited from earlier work

C[S+](C)[O-] [DMSO, dimethyl sulfoxide]
skin irritation at 70% DMSO [1]: usually non-irritating to normal skin | toxicity [2]: essentially nontoxic | skin reaction to undiluted DMSO [3]: sometimes may cause an itching or burning sensation with redness or rash

NCC[C@H](O)C(=O)N[C@@H]1C[C@H](N)[C@@H](O[C@H]2O[C@H](CN)[C@@H](O)[C@H](O)[C@H]2O)[C@H](O)[C@H]1O[C@H]1O[C@H](CO)[C@@H](O)[C@H](N)[C@H]1O [amikacin]
effectiveness in topical treatment of acne [4]: effective in the topical treatment of acne

Nc1ncnc2c1ncn2[C@@H]1O[C@H](CO)[C@@H](O)[C@@H]1O [ara-A, adenine-9- -D-arabinofuranoside]
chemical reaction between ara-A and DMSO [5]: no chemical reaction | amount of ara-A dissolved versus DMSO concentration [6]: The higher the concentration of DMSO in the solvent carrier medium, the greater is the amount of ara-A that can be dissolved | inhibition of DNA polymerase [7]: inhibits the enzyme DNA polymerase | antiviral activity [8]: active against a broad spectrum of DNA viruses | antiviral activity ([8]; listed as Ara-A): in some cases to be effective against Herpes simplex virus | side effects of massive acute overdosage [9]: without any serious side effects | toxicity through topical application [10]: not possible to demonstrate toxicity | redness and irritation after topical application ([10]; in some cases): redness and slight irritation has been noted | amount equivalent to the acute oral LD50 in an average 150 pound person [11]: more than 750 grams

CCOC(=O)c1ccc(N)cc1 [benzocaine]
deleterious effect on the patient [12]: Nor does the benzocaine appear to have any deleterious effect on the patient | influence of benzocaine on effectiveness of the medication [13]: does not impair the effectiveness of the medication

CC1(C)S[C@@H]2[C@H](NC(=O)C(C(=O)O)c3ccccc3)C(=O)N2[C@H]1C(=O)O (some centres unmarked) [carbenicillin]
effectiveness in topical treatment of acne [4]: effective in the topical treatment of acne

Cn1nnnc1SCC1=C(C(=O)O)N2C(=O)[C@@H](NC(=O)[C@H](O)c3ccccc3)[C@H]2SC1 [cefamandole]
effectiveness in topical treatment of acne [4]: effective in the topical treatment of acne

CO[C@@]1(NC(=O)Cc2cccs2)C(=O)N2C(C(=O)O)=C(COC(N)=O)CS[C@@H]21 [cefoxitin]
effectiveness in topical treatment of acne [4]: effective in the topical treatment of acne

CC[C@H]1OC(=O)[C@H](C)[C@@H](O[C@H]2C[C@@](C)(OC)[C@@H](O)[C@H](C)O2)[C@H](C)[C@@H](O[C@@H]2O[C@H](C)C[C@H](N(C)C)[C@H]2O)[C@](C)(O)C[C@@H](C)C(=O)[C@H](C)[C@@H](O)[C@]1(C)O [erythromycin]
effectiveness in topical treatment of acne [4]: effective in the topical treatment of acne | help in the management of acne [14]: help in the management of acne

CCC[C@@H]1C[C@@H](C(=O)N[C@@H]([C@H]2O[C@H](SC)[C@H](O)[C@@H](O)[C@H]2O)[C@@H](C)O)N(C)C1 [lincomycin]
effectiveness in topical treatment of acne [4]: effective in the topical treatment of acne | help in the management of acne [14]: help in the management of acne

CN(C)C1C(=O)C(C(N)=O)=C(O)C2(O)C(=O)C3=C(O)c4c(O)cccc4C(C)(O)C3CC12 (centres unmarked) [tetracycline]
effectiveness in topical treatment of acne [4]: effective in the topical treatment of acne | help in the management of acne [14]: help in the management of acne

NC[C@H]1O[C@H](O[C@H]2[C@H](O)[C@@H](O[C@H]3O[C@H](CO)[C@@H](O)[C@H](N)[C@H]3O)[C@H](N)C[C@@H]2N)[C@H](N)C[C@@H]1O [tobramycin]
effectiveness in topical treatment of acne [4]: effective in the topical treatment of acne

CN[C@H](CC(C)C)C(=O)N[C@H]1C(=O)N[C@@H](CC(N)=O)C(=O)N[C@H]2C(=O)N[C@H]3C(=O)N[C@H](C(=O)N[C@H](C(=O)O)c4cc(O)cc(O)c4-c4cc3ccc4O)[C@H](O)c3ccc(c(Cl)c3)Oc3cc2cc(c3O[C@@H]2O[C@H](CO)[C@@H](O)[C@H](O)[C@H]2O[C@H]2C[C@](C)(N)[C@H](O)[C@H](C)O2)Oc2ccc(cc2Cl)[C@H]1O [vancomycin]
effectiveness in topical treatment of acne [4]: effective in the topical treatment of acne
